# Patent publication US20140275275A1, “Chlorhexadine Antiseptic” (CARNELL & HERZOG, LLC, priority 2013, published 2014)
# System: methicillin-resistant Staphylococcus aureus
# Assay: In-vitro time-kill test on S. aureus (MRSA)
# Details: for Post-exposure population: inoculum 1.460×10^7 CFU/ML
# Procedure: This example compares the test composition to a solution of 4% chlorhexidine gluconate. The microorganism used in the test was methicillin-resistant Staphylococcus aureus.
# An in-vitro time-kill test was performed on S. aureus using both the test composition and the solution of 4% chlorhexidine gluconate. A S. aureus suspension with an inoculum level of 1.460×10^7 colony-forming units (CFU)/ML was used for all tests. A 0.1 mL aliquot of the S. aureus suspension was added to 9.9 mL of the test composition or the 4% chlorhexidine gluconate solution and exposed for periods of one minute, five minutes, and 10 minutes. At the end of each exposure period, a neutralizer was added to stop the bactericidal activity.
smiles,measurement,setting,value
"N=C(NCCCCCCNC(=N)NC(=N)Nc1ccc(Cl)cc1)NC(=N)Nc1ccc(Cl)cc1.O=C(O)[C@H](O)[C@@H](O)[C@H](O)[C@H](O)CO.O=C(O)[C@H](O)[C@@H](O)[C@H](O)[C@H](O)CO [4% chlorhexidine gluconate, chlorhexidine gluconate]",Log10 reduction,exposure 1 minute,4.0798 Log10
same,Percent reduction,exposure 1 minute,99.9917%
same,Post-exposure population,exposure 1 minute,1.2150 × 10^3 CFU/ML
same,Log10 reduction,exposure 5 minutes,6.1644 Log10
same,Percent reduction,exposure 5 minutes,99.9999%
same,Post-exposure population,exposure 5 minutes,<1.00 × 10^1 CFU/ML
same,Log10 reduction,exposure 10 minutes,6.1644 Log10
same,Percent reduction,exposure 10 minutes,99.9999%
same,Post-exposure population,exposure 10 minutes,<1.00 × 10^1 CFU/ML
